# From article PMC6234229, “The role of loops B and C in determining the potentiation of GABAA receptors by midazolam” (Pharmacology Research & Perspectives, 2018)
# How the values were obtained:
# Assay in all cases: Midazolam potentiation of EC10 GABA currents, whole-cell patch clamp, HEK293T
# Assay type in all cases: cell-based
# [1] = biological target: T1, α3(H126R)β2γ2 GABAA receptor (Homo sapiens, UniProt P18507+P34903+P47870, H154R)
# T1 construct: expressed in transfected cells; host or cells: HEK293T
# From the text: (§1) Human (Homo sapiens) GABAA subunits (α1‐6, β2, γ2s) were subcloned into pcDNA3.1+ vectors with a cytomegalovirus (CMV) promoter. The hβ2 and hα3 sequences were humanized rat (Rattus norvegicus) cDNA with amino acid substitutions made to match the human protein sequence. The α1‐3, α5, β2, and γ2s subunits were a generous gift from Neil L. Harrison (Columbia University Medical Center, NY). The α4 subunit was obtained from GenScript (Piscataway, NJ), and the α6 subunit was a generous gift from Robert L. McDonald (Vanderbilt University, TN). All point mutations (listed in Figure 1C) were introduced using the QuikChange Lightening site‐directed mutagenesis kit (Agilent Technologies, Santa Clara, CA) according to the manufacturer's instructions and were confirmed by sequencing (Eurofins MWG Operon, Louisville, KY).
# (§2) Human embryonic kidney cells containing the SV40 T‐antigen (HEK293T) were acquired from American Type Culture Collection (ATCC®, Manassas, VA), catalogue number, CRL3216. HEK293T cells were maintained at 37°C and 5% CO2 in Eagle Minimum Essential Medium (MEM) supplemented with 5% fetal bovine serum (Atlanta Biologicals Inc., Flowery Branch, GA), 40 μM L‐glutamine, 100 U/mL penicillin and 0.1 mM streptomycin. Cells were passaged regularly when they reached 70% confluency using trypsin. Cells were not passaged more than 22 times. New cells were revived from frozen stocks at passage 2‐4. Cells used for in vitro electrophysiology experiments were grown on poly‐D‐lysine‐coated glass coverslips (No.2, VWR, Radnor, PA) and transfected with X‐tremeGENE (Roche Diagnostics, Indianapolis, IN) with the desired receptor subunit cDNAs at a 1:1:1 ratio to express αxβ2γ2s receptors (2 μg total cDNA) and with 0.5 μg green fluorescent protein (GFP) as an expression marker. The γ2s incorporation into receptors was tested with zinc inhibition assays regularly.24 Patch clamp experiments were performed on cells at 24‐72 hours post‐transfection. All experiments were performed at 22°C. Experiments consisted of at least five cells recorded per day from at least two transfections across 3‐4 days to control for cell health and transfection efficiency. At least three cells expressing wild‐type receptors were recorded on days that mutant receptors were tested to provide a time‐matched expression control. All reagents were purchased from Sigma‐Aldrich (St. Louis, MO) unless otherwise stated.
# (§3) Extracellular solution contained 161 mM NaCl, 3 mM KCl, 1 mM MgCl2, 1.5 mM CaCl2, 10 mM HEPES, and 6 mM D‐glucose, adjusted to pH 7.4 with NaOH (320‐330 mOsm). […] The perfusion system was controlled by protocols written in pClamp 9 (Molecular Devices, LLC., Sunnyvale, CA). Whole‐cell currents were recorded at ‐60 mV, filtered at 100 Hz and sampled at 200 Hz with a MultiClamp 700B amplifier (Molecular Devices, LLC) and DigiData 1322A (Molecular Devices, LLC) digitizer. […] Cells were recorded with the midazolam protocol no more than two times to avoid desensitization and incomplete washout or irreversible modulation.
# (§4) Recordings were analyzed using MATLAB (Math Works, Inc., Natick, MA). […] The maximum peak current, EC50 and Hill coefficient were estimated for assays from each cell. When Hill parameters are estimated from whole‐cell recordings, the changes in the parameters across receptor conditions can be ascribed to the following changes in receptor physiology. Changes in maximum current can be due to changes in the single‐channel conductance or the rate of desensitization. Changes in cell surface receptor expression can cause minor changes in maximum current, but are unlikely to occur in the time course of our experimental protocol. […] More often minor changes in the Hill coefficient are attributed to the altered homogeneity in the receptor population expressed by the HEK293T cell. For example, a shallower Hill coefficient could be caused by a shift in the population of receptors from mostly αβγ receptors to a combination of both αβ and αβγ receptors.
# [2] = biological target: T2, α6(N204I)β2γ2 GABAA receptor (Homo sapiens, UniProt P18507+P47870+Q16445, N223I)
# T2 construct: expressed in transfected cells; host or cells: HEK293T
# From the text: as §1, §2, §3, §4
# [3] = biological target: T3, α4(P161T)β2γ2 GABAA receptor (Homo sapiens, UniProt P18507+P47870+P48169, P196T); conditions: for Midazolam potentiation (%): α4(P161T)
# T3 construct: expressed in transfected cells; host or cells: HEK293T
# From the text: as §1, §2, §3, §4
# [4] = biological target: T4, α5(P166T)β2γ2 GABAA receptor (Homo sapiens, UniProt P18507+P31644+P47870, P197T)
# T4 construct: expressed in transfected cells; host or cells: HEK293T
# From the text: as §1, §2, §3, §4
# [5] = biological target: T5, α5β2γ2 GABAA receptor (Homo sapiens, UniProt P18507+P31644+P47870)
# T5 construct: expressed in transfected cells; host or cells: HEK293T
# From the text: as §1, §2, §3, §4
# [6] = biological target: T6, α3(S230I)β2γ2 GABAA receptor (Homo sapiens, UniProt P18507+P34903+P47870, S258I)
# T6 construct: expressed in transfected cells; host or cells: HEK293T
# From the text: as §1, §2, §3, §4
# [7] = biological target: T7, α3(T187P)β2γ2 GABAA receptor (Homo sapiens, UniProt P18507+P34903+P47870, T215P)
# T7 construct: expressed in transfected cells; host or cells: HEK293T
# From the text: as §1, §2, §3, §4
# T2 sequence (Q16445 20-453 N223I): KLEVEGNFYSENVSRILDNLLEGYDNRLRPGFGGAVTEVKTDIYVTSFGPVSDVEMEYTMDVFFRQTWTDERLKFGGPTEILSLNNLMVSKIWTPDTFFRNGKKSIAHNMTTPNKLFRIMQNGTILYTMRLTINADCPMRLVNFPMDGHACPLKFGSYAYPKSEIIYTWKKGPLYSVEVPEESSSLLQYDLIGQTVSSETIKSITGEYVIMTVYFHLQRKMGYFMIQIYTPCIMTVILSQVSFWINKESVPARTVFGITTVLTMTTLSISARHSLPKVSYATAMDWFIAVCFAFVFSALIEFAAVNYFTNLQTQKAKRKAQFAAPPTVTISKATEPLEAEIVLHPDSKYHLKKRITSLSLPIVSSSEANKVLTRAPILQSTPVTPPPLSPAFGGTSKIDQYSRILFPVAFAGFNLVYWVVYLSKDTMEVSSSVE
# T2 sequence (P47870 26-474 isoform P47870-1 limits assumed, stated change not applied): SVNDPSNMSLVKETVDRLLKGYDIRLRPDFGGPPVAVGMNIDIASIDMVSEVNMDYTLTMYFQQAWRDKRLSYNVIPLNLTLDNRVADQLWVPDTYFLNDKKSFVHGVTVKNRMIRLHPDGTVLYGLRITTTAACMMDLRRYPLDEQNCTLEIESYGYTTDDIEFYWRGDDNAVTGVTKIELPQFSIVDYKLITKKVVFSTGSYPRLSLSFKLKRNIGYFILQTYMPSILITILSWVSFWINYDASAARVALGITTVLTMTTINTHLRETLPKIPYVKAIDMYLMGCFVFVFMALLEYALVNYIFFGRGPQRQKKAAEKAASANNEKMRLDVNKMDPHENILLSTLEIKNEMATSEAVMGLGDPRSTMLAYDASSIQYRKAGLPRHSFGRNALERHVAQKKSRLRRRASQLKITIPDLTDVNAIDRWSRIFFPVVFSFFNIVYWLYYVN
# T2 sequence (P18507 40-467 isoform P18507-1 limits assumed, stated change not applied): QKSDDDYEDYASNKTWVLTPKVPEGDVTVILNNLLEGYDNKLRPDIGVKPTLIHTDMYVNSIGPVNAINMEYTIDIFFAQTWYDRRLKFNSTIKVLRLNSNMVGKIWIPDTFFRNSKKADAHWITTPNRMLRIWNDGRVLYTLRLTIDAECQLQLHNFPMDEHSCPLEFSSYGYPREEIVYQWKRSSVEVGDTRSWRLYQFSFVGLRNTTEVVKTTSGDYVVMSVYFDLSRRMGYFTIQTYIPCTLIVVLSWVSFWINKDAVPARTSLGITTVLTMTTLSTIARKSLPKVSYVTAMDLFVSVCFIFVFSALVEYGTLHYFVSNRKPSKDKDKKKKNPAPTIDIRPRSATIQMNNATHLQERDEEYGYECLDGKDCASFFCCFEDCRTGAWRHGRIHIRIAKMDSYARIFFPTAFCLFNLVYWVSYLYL
# T5 sequence (P31644 32-462): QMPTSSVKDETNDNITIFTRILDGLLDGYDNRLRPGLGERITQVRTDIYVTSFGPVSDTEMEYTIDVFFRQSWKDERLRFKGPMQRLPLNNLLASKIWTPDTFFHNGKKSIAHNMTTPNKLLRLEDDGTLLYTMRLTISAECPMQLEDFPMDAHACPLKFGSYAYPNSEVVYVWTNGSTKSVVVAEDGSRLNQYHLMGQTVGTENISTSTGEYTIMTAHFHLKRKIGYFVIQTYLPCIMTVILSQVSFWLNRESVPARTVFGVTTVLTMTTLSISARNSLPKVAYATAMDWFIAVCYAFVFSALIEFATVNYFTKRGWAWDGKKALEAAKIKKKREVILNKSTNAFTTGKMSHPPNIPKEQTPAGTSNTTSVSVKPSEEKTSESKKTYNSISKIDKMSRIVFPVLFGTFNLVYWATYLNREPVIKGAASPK
# T5 sequence (P47870 26-474 isoform P47870-1 limits assumed): as the sequence (P47870 26-474 isoform P47870-1 limits assumed, stated change not applied) above
# T5 sequence (P18507 40-467 isoform P18507-1 limits assumed): as the sequence (P18507 40-467 isoform P18507-1 limits assumed, stated change not applied) above
# T3 sequence (P48169 36-554 P196T): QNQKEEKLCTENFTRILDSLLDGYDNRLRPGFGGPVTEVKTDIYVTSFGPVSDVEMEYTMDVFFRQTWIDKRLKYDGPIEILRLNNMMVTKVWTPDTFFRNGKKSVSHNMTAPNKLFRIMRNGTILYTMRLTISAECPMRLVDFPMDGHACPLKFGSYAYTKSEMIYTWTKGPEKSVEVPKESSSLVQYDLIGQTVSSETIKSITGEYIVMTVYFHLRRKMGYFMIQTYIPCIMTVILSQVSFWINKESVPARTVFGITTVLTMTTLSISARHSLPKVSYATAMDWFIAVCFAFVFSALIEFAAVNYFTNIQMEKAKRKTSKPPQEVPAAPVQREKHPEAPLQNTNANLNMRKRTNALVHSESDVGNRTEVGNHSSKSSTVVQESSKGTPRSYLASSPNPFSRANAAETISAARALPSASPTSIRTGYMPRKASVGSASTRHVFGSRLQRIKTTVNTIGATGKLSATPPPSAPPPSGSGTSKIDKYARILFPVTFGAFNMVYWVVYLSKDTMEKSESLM
# T3 sequence (P47870 26-474 isoform P47870-1 limits assumed, stated change not applied): as the sequence (P47870 26-474 isoform P47870-1 limits assumed, stated change not applied) above
# T3 sequence (P18507 40-467 isoform P18507-1 limits assumed, stated change not applied): as the sequence (P18507 40-467 isoform P18507-1 limits assumed, stated change not applied) above
# T4 sequence (P31644 32-462 P197T): as the sequence (P31644 32-462) above, with P166T counted along it
# T4 sequence (P47870 26-474 isoform P47870-1 limits assumed, stated change not applied): as the sequence (P47870 26-474 isoform P47870-1 limits assumed, stated change not applied) above
# T4 sequence (P18507 40-467 isoform P18507-1 limits assumed, stated change not applied): as the sequence (P18507 40-467 isoform P18507-1 limits assumed, stated change not applied) above
# T1 sequence (P34903 29-492 H154R): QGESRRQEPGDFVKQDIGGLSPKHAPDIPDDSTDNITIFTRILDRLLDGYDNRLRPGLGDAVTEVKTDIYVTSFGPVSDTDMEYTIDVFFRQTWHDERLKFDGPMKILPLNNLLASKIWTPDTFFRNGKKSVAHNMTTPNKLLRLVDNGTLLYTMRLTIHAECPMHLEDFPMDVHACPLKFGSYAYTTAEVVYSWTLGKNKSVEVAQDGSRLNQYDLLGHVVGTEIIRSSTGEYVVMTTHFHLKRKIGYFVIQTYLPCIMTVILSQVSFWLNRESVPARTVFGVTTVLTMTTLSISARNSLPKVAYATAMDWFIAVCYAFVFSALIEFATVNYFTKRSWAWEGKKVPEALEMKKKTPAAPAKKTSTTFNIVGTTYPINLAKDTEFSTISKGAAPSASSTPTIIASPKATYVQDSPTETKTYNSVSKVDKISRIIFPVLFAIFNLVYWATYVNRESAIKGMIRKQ
# T1 sequence (P47870 25-512 limits assumed): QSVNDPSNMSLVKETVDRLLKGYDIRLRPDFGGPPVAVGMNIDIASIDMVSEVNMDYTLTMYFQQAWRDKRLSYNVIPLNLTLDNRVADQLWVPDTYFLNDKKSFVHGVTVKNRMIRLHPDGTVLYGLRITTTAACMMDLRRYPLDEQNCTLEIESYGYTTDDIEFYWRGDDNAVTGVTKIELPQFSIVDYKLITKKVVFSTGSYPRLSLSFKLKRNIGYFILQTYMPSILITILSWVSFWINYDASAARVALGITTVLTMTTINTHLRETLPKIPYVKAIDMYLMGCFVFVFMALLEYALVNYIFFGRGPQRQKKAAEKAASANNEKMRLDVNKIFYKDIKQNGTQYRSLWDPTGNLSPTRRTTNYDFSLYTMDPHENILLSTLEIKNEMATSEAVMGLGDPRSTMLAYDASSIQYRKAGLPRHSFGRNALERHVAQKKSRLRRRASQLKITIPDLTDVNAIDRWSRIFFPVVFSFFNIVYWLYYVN
# T1 sequence (P18507 40-467 isoform P18507-1 limits assumed, stated change not applied): as the sequence (P18507 40-467 isoform P18507-1 limits assumed, stated change not applied) above
# T7 sequence (P34903 29-492 T215P): as the sequence (P34903 29-492 H154R) above, with R126H, T187P counted along it
# T7 sequence (P47870 25-512 limits assumed): as the sequence (P47870 25-512 limits assumed) above
# T7 sequence (P18507 40-467 isoform P18507-1 limits assumed, stated change not applied): as the sequence (P18507 40-467 isoform P18507-1 limits assumed, stated change not applied) above
# T6 sequence (P34903 29-492 S258I): as the sequence (P34903 29-492 H154R) above, with R126H, S230I counted along it
# T6 sequence (P47870 25-512 limits assumed): as the sequence (P47870 25-512 limits assumed) above
# T6 sequence (P18507 40-467 isoform P18507-1 limits assumed, stated change not applied): as the sequence (P18507 40-467 isoform P18507-1 limits assumed, stated change not applied) above
compound,measurement,setting,value
Cc1ncc2n1-c1ccc(Cl)cc1C(c1ccccc1F)=NC2 [midazolam],responsiveness to midazolam potentiation,[1],abolished the ability of receptors to respond to midazolam potentiation
same,Midazolam potentiation (%),[1]; 10 nM MDZ + EC10 GABA,3.71 ± 1.31%
same,Midazolam potentiation (%),[1]; 50 nM MDZ + EC10 GABA,3.63 ± 2.06%
same,Midazolam potentiation (%),[1]; 100 nM MDZ + EC10 GABA,8.25 ± 1.64%
same,Midazolam potentiation (%),[1]; 500 nM MDZ + EC10 GABA,7.92 ± 2.84%
same,Midazolam potentiation (%),[1]; 1000 nM MDZ + EC10 GABA,10.78 ± 2.42%
same,responsiveness to midazolam potentiation,[2],failed to convey any notable midazolam potentiation
same,Midazolam potentiation (%),[2]; 10 nM MDZ + EC10 GABA,11.98 ± 4.42%
same,Midazolam potentiation (%),[2]; 50 nM MDZ + EC10 GABA,19.07 ± 5.84%
same,Midazolam potentiation (%),[2]; 100 nM MDZ + EC10 GABA,25.21 ± 7.32%
same,Midazolam potentiation (%),[2]; 500 nM MDZ + EC10 GABA,25.85 ± 6.62%
same,Midazolam potentiation (%),[2]; 1000 nM MDZ + EC10 GABA,19.31 ± 7.32%
same,Midazolam potentiation (%),[3]; 10 nM MDZ + EC10 GABA,13.22 ± 3.76%
same,Midazolam potentiation (%),[3]; 50 nM MDZ + EC10 GABA,10.31 ± 5.64%
same,Midazolam potentiation (%),[3]; 100 nM MDZ + EC10 GABA,14.28 ± 5.87%
same,Midazolam potentiation (%),[3]; 500 nM MDZ + EC10 GABA,21.94 ± 5.61%
same,Midazolam potentiation (%),[3]; 1000 nM MDZ + EC10 GABA,26.43 ± 9.72%
same,responsiveness to midazolam potentiation,[3]; α4(P161T)β2γ2,failed to confer midazolam responsiveness
same,EC50,[4],0.0533 ± 0.00554 µM
same,Midazolam potentiation (%),"[4]; 10 nM MDZ + EC10 GABA, α5(P166T)",13.32 ± 1.68%
same,Midazolam potentiation (%),"[4]; 50 nM MDZ + EC10 GABA, α5(P166T)",54.02 ± 5.66%
same,Midazolam potentiation (%),"[4]; 100 nM MDZ + EC10 GABA, α5(P166T)",106.37 ± 15.09%
same,Midazolam potentiation (%),"[4]; 500 nM MDZ + EC10 GABA, α5(P166T)",134.76 ± 21.59%
same,Midazolam potentiation (%),"[4]; 1000 nM MDZ + EC10 GABA, α5(P166T)",141.51 ± 25.59%
same,Max potentiation (%),"[4]; α5(P166T), Hill fit, midazolam 10-1000 nM + EC10 GABA",140.7 ± 23.7%
same,Hill coefficient,"[4]; α5(P166T), midazolam Hill fit",3.661 ± 1.897
same,EC50,[5],0.0528 ± 0.00348 µM
same,Midazolam potentiation (%),"[5]; 10 nM MDZ + EC10 GABA, α5β2γ2",20.47 ± 10.62%
same,Midazolam potentiation (%),"[5]; 50 nM MDZ + EC10 GABA, α5β2γ2",63.82 ± 19.54%
same,Midazolam potentiation (%),"[5]; 100 nM MDZ + EC10 GABA, α5β2γ2",113.29 ± 28.44%
same,Midazolam potentiation (%),"[5]; 500 nM MDZ + EC10 GABA, α5β2γ2",130.90 ± 29.52%
same,Midazolam potentiation (%),"[5]; 1000 nM MDZ + EC10 GABA, α5β2γ2",123.12 ± 26.08%
same,Max potentiation (%),"[5]; α5β2γ2, Hill fit, midazolam 10-1000 nM + EC10 GABA",107.9 ± 20.3%
same,Hill coefficient,"[5]; α5β2γ2, midazolam Hill fit",2.632 ± 0.329
same,Midazolam potentiation (%),"[6]; 10 nM MDZ + EC10 GABA, α3(S230I)",37.59 ± 4.12%
same,Midazolam potentiation (%),"[6]; 50 nM MDZ + EC10 GABA, α3(S230I)",139.86 ± 12.63%
same,Midazolam potentiation (%),"[6]; 100 nM MDZ + EC10 GABA, α3(S230I)",280.95 ± 24.73%
same,Midazolam potentiation (%),"[6]; 500 nM MDZ + EC10 GABA, α3(S230I)",413.27 ±37.70%
same,Midazolam potentiation (%),"[6]; 1000 nM MDZ + EC10 GABA, α3(S230I)",428.92 ± 38.09%
same,EC50,"[6]; EC50 (nM), α3(S230I), midazolam potentiation of EC10 GABA",73.6 nM
same,enhancement of maximum midazolam potentiation relative to wildtype,[6]; α3(S230I) vs α3β2γ2,approximately 63%
same,Max potentiation (%),"[6]; α3(S230I), Hill fit, midazolam 10-1000 nM + EC10 GABA",436.0 ± 39.4%
same,Hill coefficient,"[6]; α3(S230I), midazolam Hill fit",1.655 ± 0.061
same,EC50,[7],0.0552 ± 0.00291 µM
same,Midazolam potentiation (%),"[7]; 10 nM MDZ + EC10 GABA, α3(T187P)",23.71 ± 6.37%
same,Midazolam potentiation (%),"[7]; 50 nM MDZ + EC10 GABA, α3(T187P)",92.47 ± 12.51%
same,Midazolam potentiation (%),"[7]; 100 nM MDZ + EC10 GABA, α3(T187P)",168.56 ± 23.08%
same,Midazolam potentiation (%),"[7]; 500 nM MDZ + EC10 GABA, α3(T187P)",212.97 ± 30.06%
same,Midazolam potentiation (%),"[7]; 1000 nM MDZ + EC10 GABA, α3(T187P)",213.30 ± 30.99%
same,Max potentiation (%),"[7]; α3(T187P), Hill fit, midazolam 10-1000 nM + EC10 GABA",219.6 ± 32.3%
same,Hill coefficient,"[7]; α3(T187P), midazolam Hill fit",1.963 ± 0.224
